{
  "source": "patent EP0363836A2",
  "about": "“Use of homopiperazines in the preparation of a medicament for preventing or treating organ rejection reactions” (BEHRINGWERKE Aktiengesellschaft, priority 1988, dated 1990)",
  "key": {"Fischer-Ratten": {"system": "Fischer-Ratten", "assay": "Rat tail skin transplantation, Lewis donor to Fischer recipient: graft survival time", "assay_type": "in vivo", "settings": "d0-9, mean ± s of 5 animals", "description": "(§1) In einem Experimentalansatz wurden Schwanzhautstückchen von Lewis Ratten mit einer Größe von etwa 0.5 x 1.0 cm auf den Schwanz von Fischer Ratten verpflanzt. In einem weiteren Modell wurde die Schwanzhaut von DA Ratten auf Lewis Ratten transplantiert. Die transplantierten Hautstücke werden vom Immunsystem der Empfängertiere als fremd erkannt und abgestoßen. Wie in Tabelle I zu sehen ist, betrug die Transplantüberlebenszeit im Lewis-Fischer-Rattenmodell in den Kontrollgruppen, die nur mit dem Lösungsmittel behandelt wurden zwischen 16 und 18 Tagen. Die Verbindung der Formel I mit R₁ = H wurde in verschiedenen Konzentrationen (1, 5, 10, 20 und 40 mg/kg Körpergewicht pro Injektion) an 10 aufeinanderfolgenden Tagen, beginnend mit dem Tag der Transplantation, entweder oral oder intraperitoneal verabreicht. Hierbei zeigt sich, daß sich durch verschiedene Konzentrationen der Substanz die Überlebenszeiten der Transplantate dosisabhängig von 15.8 ± 2.4 auf 26.8 ± 1.3 bzw. 18.4 ± 1.5 auf 28.4 ± 1.1 erhöhen ließen, wobei 10 mg/kg eine optimal wirksame Dosis zu sein scheinen."}, "Lewis Ratten": {"system": "Lewis Ratten", "assay": "Rat tail skin transplantation, DA donor to Lewis recipient: graft survival time", "assay_type": "in vivo", "settings": "d0-9, mean ± s of 5 animals, * p 0.001", "description": "as §1\nAuch im anderen Transplantationsmodell mit DA Ratten (Spender) und Lewis Ratten (Empfänger) kommt es zu einer Verlängerung der Transplantatüberlebenszeiten durch die Gabe von Homopiperazinen. Hier stoßen die nur mit dem Lösungsmittel behandelten Kontrolltiere das Transplantat ca. am Tag 12 ab. Durch die Behandlung (p.o. oder i.p. […]"}},
  "data": [
    {"smiles": "CC(C)(C)c1cc(C(=O)N2CCCNCC2)cc(C(C)(C)C)c1O", "note": "[Verbindung der Formel I mit R¹ = H]", "values": [
      {"measurement": "Tage bis zur Abstoßung (x ± s)", "setting": "Fischer-Ratten; 1 mg/kg, 10xip", "result": "(22.8 ± 2.2) Tage"},
      {"measurement": "Tage bis zur Abstoßung (x ± s)", "setting": "Fischer-Ratten; 1 mg/kg, 10xpo", "result": "(21.6 ± 1.3) Tage"},
      {"measurement": "Tage bis zur Abstoßung (x ± s)", "setting": "Fischer-Ratten; 5 mg/kg, 10xip", "result": "(25.0 ± 2.6) Tage"},
      {"measurement": "Tage bis zur Abstoßung (x ± s)", "setting": "Fischer-Ratten; 5 mg/kg, 10xpo", "result": "(25.2 ± 0.8) Tage"},
      {"measurement": "Tage bis zur Abstoßung (x ± s)", "setting": "Fischer-Ratten; 10 mg/kg, 10xip", "result": "(26.8 ± 1.3) Tage"},
      {"measurement": "Tage bis zur Abstoßung (x ± s)", "setting": "Fischer-Ratten; 10 mg/kg, 10xip, listed as Verbindung der Formel I mit R₁ = H", "result": "26.8 ± 1.3", "unit": "Tage"},
      {"measurement": "Tage bis zur Abstoßung (x ± s)", "setting": "Fischer-Ratten; 10 mg/kg, 10xpo", "result": "(28.4 ± 1.1) Tage"},
      {"measurement": "Tage bis zur Abstoßung (x ± s)", "setting": "Fischer-Ratten; 10 mg/kg, 10xpo, listed as Verbindung der Formel I mit R₁ = H", "result": "28.4 ± 1.1", "unit": "Tage"},
      {"measurement": "Tage bis zur Abstoßung (x ± s)", "setting": "Fischer-Ratten; 20 mg/kg, 10xip", "result": "(25.2 ± 1.6) Tage"},
      {"measurement": "Tage bis zur Abstoßung (x ± s)", "setting": "Fischer-Ratten; 20 mg/kg, 10xpo", "result": "(26.8 ± 0.8) Tage"},
      {"measurement": "Tage bis zur Abstoßung (x ± s)", "setting": "Fischer-Ratten; 40 mg/kg, 10xip", "result": "(22.4 ± 2.4) Tage"},
      {"measurement": "Tage bis zur Abstoßung (x ± s)", "setting": "Fischer-Ratten; 40 mg/kg, 10xpo", "result": "(24.6 ± 2.0) Tage"},
      {"measurement": "Tage bis zur Abstoßung (x ± s)", "setting": "Lewis Ratten; 5 mg/kg, 5xip", "result": "(16.0 ± 1.2)* Tage"},
      {"measurement": "Tage bis zur Abstoßung (x ± s)", "setting": "Lewis Ratten; 10 mg/kg, 5xip", "result": "(16.6 ± 1.8)* Tage"},
      {"measurement": "Tage bis zur Abstoßung (x ± s)", "setting": "Lewis Ratten; 10 mg/kg, 10xpo", "result": "(16.6 ± 0.6)* Tage"},
      {"measurement": "Tage bis zur Abstoßung (x ± s)", "setting": "Lewis Ratten; 25 mg/kg, 5xip", "result": "(17.8 ± 0.8)* Tage"},
      {"measurement": "Tage bis zur Abstoßung (x ± s)", "setting": "Lewis Ratten; 25 mg/kg, 10xpo", "result": "(17.4 ± 0.6)* Tage"},
      {"measurement": "Tage bis zur Abstoßung (x ± s)", "setting": "Lewis Ratten; 50 mg/kg, 5xip", "result": "(19.6 ± 1.8)* Tage"},
      {"measurement": "Tage bis zur Abstoßung (x ± s)", "setting": "Lewis Ratten; 50 mg/kg, 10xpo", "result": "(18.6 ± 1.1)* Tage"}
    ]}
  ]
}
